Series [1] deals with HaCaT cells. The series can be described thus: Cell viability of HaCaT cells, Alamar blue. It is filed as cell-based, human. The conditions noted are these: 3 μM. On the procedure:
(§1) HaCaT cells were maintained in T-75 cm2 flask in Dulbecco's modified Eagle medium supplemented with FBS (10%), L-glutamine (2 mM), penicillin (100 ug/ml), streptomycin (100 ug/ml) at 37° C. in 5% CO2 incubator. Cell growth was maintained to 70-80% confluence for seeding and vehicle used was 1% DMSO. The cell viability was checked at various time points using Alamar blue and fluorescence readings were taken at excitation of 544 nm and emission of 590 nm.
For orientation: The colour change of resazurin is a common sign of viable cells or microbes.

In series [2] the test system is human PBMCs. The series can be described thus: Cell viability of human PBMCs, Alamar blue. It is filed as cell-based. The conditions noted are these: 3 μM. On the procedure:
(§2) Fresh human blood from healthy volunteer was collected in anticoagulant (5 mM) ethylene diamine tetra acetic acid (EDTA) containing tubes. The growth medium used was RPMI-1640 medium (with 3% FBS) and incubated at 37° C. for 60 mins in a 5% CO2 incubator with vehicle used as 1% DMSO. The cell viability was checked at various time points using Alamar blue and fluorescence readings were taken at excitation of 544 nm and emission of 590 nm.

Series [3] concerns IL-6. The series can be described thus: IL-6 release from stimulated HaCaT cells, ELISA. The class given is cell-based, human. The conditions noted are these: 1 μM; IFN-γ 50 ng/mL, 48 hrs. How it is done:
as §1
(§3) HaCaT cells were stimulated with different stimulators as follows: • a. Cells were exposed to stimulator LPS at 1 μg/mL for 48 hrs to stimulate IL-1β • b. Cells were exposed to stimulator IFN-γ at 50 ng/mL for 48 hrs to stimulate TNF-α, IL-6
(§4) After 48 hrs supernatants were collected and centrifuged to remove any cell debris and aliquots were used for ELISA.
A general note: In an ELISA, binding on a coated surface is turned into a signal by an enzyme label.

Series [4] concerns Human IL-22. The series can be described thus: IL-22 release from stimulated PBMCs, ELISA. It is filed as cell-based. The conditions noted are these: 1 μM; PMA+Ionomycin, 18 hrs. How it is done:
as §2
(§5) PBMCs were stimulated with different stimulators as follows: • a. Cells were exposed to stimulator LPS at 100 ng/mL for 18 hrs to stimulate TNF-α, IL-6, IFN-γ, IL10, IL-1β • b. Cells were exposed to stimulator IFN-γ+LPS at 100 ng/mL+1 μg/mL for 18 hrs to stimulate IL-12 • c. Cells were exposed to stimulator PMA+Ionomycin at 50 ng/mL+1 μg/mL for 18 hrs to stimulate IL-23, IL-22, IL-17A, IL-17F
(§6) After 18 hrs supernatants were collected and centrifuged to remove any cell debris and aliquots were used for ELISA.

Series [5] relates to Human IL-12. The experiment in a line: IL-12 release from stimulated PBMCs, ELISA. It is filed as cell-based. The conditions noted are these: 1 μM; IFN-γ+LPS, 18 hrs. How it is done: as §2, §5, §6
In series [6] the test system is Human IL-1β. The series can be described thus: IL-1β release from stimulated PBMCs, ELISA. The class given is cell-based. The conditions noted are these: 1 μM; LPS 100 ng/mL, 18 hrs. How it is done: as §2, §5, §6
For series [7], the system named is TNF-α. The experiment in a line: TNF-α release from stimulated HaCaT cells, ELISA. It is filed as cell-based, human. As to conditions: 1 μM; IFN-γ 50 ng/mL, 48 hrs. How it is done: as §1, §3, §4
The test system of series [8] is Human IL-6. The series can be described thus: IL-6 release from stimulated PBMCs, ELISA. The class given is cell-based. As to conditions: 1 μM; LPS 100 ng/mL, 18 hrs. On the procedure:
as §2, §5, §6

The subject of series [9] is Human IL-17F. The series can be described thus: IL-17F release from stimulated PBMCs, ELISA. It is filed as cell-based. The conditions noted are these: 1 μM; PMA+Ionomycin, 18 hrs. On the procedure: as §2, §5, §6
For series [10], the system named is Human TNF-α. The series can be described thus: TNF-α release from stimulated PBMCs, ELISA. The class given is cell-based. As to conditions: 1 μM; LPS 100 ng/mL, 18 hrs. On the procedure: as §2, §5, §6
The subject of series [11] is Human IFN-γ. The experiment in a line: IFN-γ release from stimulated PBMCs, ELISA. The conditions noted are these: 1 μM; LPS 100 ng/mL, 18 hrs. It is filed as cell-based. How it is done:
as §2, §5, §6

Series [12] has as its system Human IL-10. The series can be described thus: IL-10 release from stimulated PBMCs, ELISA. It is filed as cell-based. As to conditions: 1 μM; LPS 100 ng/mL, 18 hrs. On the procedure:
as §2, §5, §6

For series [13], the system named is Human IL-17A. The series can be described thus: IL-17A release from stimulated PBMCs, ELISA. It is filed as cell-based. The conditions noted are these: 1 μM; PMA+Ionomycin, 18 hrs. On the procedure:
as §2, §5, §6

Series [14] has as its system Imiquimod induced psoriasis in BALB/c mice. The experiment in a line: Imiquimod induced psoriasis model in Balb/c mice. How it is done: BALB/c mice (Sex: Female, Age: 7-8 Weeks) were used for induction of psoriasis using IMQ. Topical application of imiquimod (IMQ) in mice can induce and exacerbate psoriasis closely resembling human psoriasis. […] 3%, 4% and 5% and positive control of Tenovate (Clobetasol) 0.05% cream. In all 63 mg cream containing 5% of IMQ was applied to dorsal area (shaved back) and right ear for 8 days. Topical formulations from Example 7 were used during this experiment.
The parameters investigated were ear thickness change, % inhibition of ear inflammation, Psoriatic Area Severity Index (PASI). Histopathology was performed of right ear and dorsal skin by H & E staining. The biomarker in this study was inflammatory cytokine IL-23 analyzed by ELISA obtained from tissue lysate of ear region where IMQ and doses were applied.

On to `COc1cccc2c1C(=O)c1c(O)c3c(c(O)c1C2=O)C[C@@](O)(C(=O)CO)C[C@@H]3O[C@H]1C[C@H](N)[C@H](O)[C@H](C)O1` [Doxorubicin], for which the “% Viability (±S.E.M.)” value in [1] (24 hrs) was determined as 74 ± 6%; in series [1] (48 hrs), 108 ± 5%; in [1] (72 hrs), 110 ± 2%; in series [2] (24 hrs), 110 ± 1%; in series [2] (48 hrs), 70 ± 5%; in series [2] (72 hrs) it was 52 ± 1%.

With `C[C@@H]1C[C@H]2[C@@H]3CCC4=CC(=O)C=C[C@]4(C)[C@@]3(F)[C@@H](O)C[C@]2(C)[C@@]1(O)C(=O)CO` [Dexamethasone], the “IL-6 Conc.” value in series [3] stood at 33 ± 1 pg/mL. The “Human IL-22 concentration” value in series [4] came out at 2496 pg/mL. Moreover, in series [5], the “Human IL-12 concentration” value was found to be 163 pg/mL. Moreover, the “% Viability (±S.E.M.)” value in series [1] (24 hrs) is 46 ± 3%; in [1] (48 hrs), 18 ± 2%; in series [1] (72 hrs), 8 ± 0%; in series [2] (24 hrs) it was 82 ± 6%; in series [2] (48 hrs), 78 ± 1%; in series [2] (72 hrs), 81 ± 1%. For the same molecule, in series [6], the “Human IL-1β concentration” value was found to be 174 pg/mL. The “TNF-α Conc.” value in [7] worked out at 3.2 ± 0 pg/mL. Also, in [8], the “Human IL-6 concentration” value was 3052 pg/mL. For the same molecule, the “Human IL-17F concentration” value in series [9] was 322 pg/mL. Also, the “Human TNF-α concentration” value in series [10] is listed as 325 pg/mL. Besides, the “Human IFN-γ concentration” value in series [11] is 165 pg/mL. Also, the “Human IL-10 concentration” value in series [12] was 710 pg/mL. In series [13], the “Human IL-17A concentration” value is listed as 186 pg/mL.

For the molecule `C[C@H]1C[C@H]2[C@@H]3CCC4=CC(=O)C=C[C@]4(C)[C@@]3(F)[C@@H](O)C[C@]2(C)[C@@]1(O)C(=O)CCl` [Clobetasol], in series [14] (0.05% cream, positive control), the “% Body Weight Change” value is −16.9%, the “% inhibition of Ear inflamn.” value was found to be 86.9%, the “Histopathology Scores Epidermal Thickness” value is 4.3 ± 0.3 and the “Histopathology Scores Hyperkeratosis” value is reported as 1.0 ± 0.0. In series [14] (0.05% cream, positive control), the “Histopathology Scores Rete Peg Prolifern.” value was found to be 0.3 ± 0.3 and the PASI score is listed as 4.83 ± 2.3. For the same molecule, the “Spleen weight” value in series [14] (0.05% cream, positive control, Day 9) is on record as 49.3 ± 10.3 mg. Moreover, the “IL23 Levels” value in series [14] (0.05% cream, positive control, ear tissue lysate) came to 64.1 ± 7.4 pg/mL. Besides, the “Spleen weight vs disease control (in words)” value in series [14] (Niclosamide 2%, Nitazoxanide 3% and 5%, Clobetasol 0.05%, Day 9) is “reduction in spleen weight was observed to be significant”. Further, the “Body weight change (in words)” value in series [14] (all tested doses, Clobetasol Day 7 to Day 9) was “significant body weight change”. The “IL-23 level in ear tissue homogenates (in words)” value in series [14] (different doses) is reported as “reduces IL-23 levels below that of normal control”.

The values above are taken from US11786492B2, “Therapeutic agent for phosphodiesterase inhibition and its related disorders” (Novalead Pharma Inc, priority 2017, dated 2023).
